# Reference: ChEMBL document CHEMBL4007394, “Type I DNA Topoisomerases” (J Med Chem, 2017)
# pIC50: −log10 of the molar value.
# Tests used:
# [1] = biological target: Bifunctional 3'-5' exonuclease/ATP-dependent helicase WRN (Homo sapiens, UniProt Q14191); test: Inhibition of recombinant WRN (unknown origin) helicase activity expressed in baculovirus expression system using forked duplex DNA as substrate after 15 mins by polyacrylamide gel electrophoresis
# [2] = Inhibition of recombinant Streptococcus pneumoniae R6 topoisomerase-1 expressed in Escherichia coli assessed as reduction in enzyme-catalyzed relaxation of supercoiled pBR322 DNA preincubated for 10 mins by ethidium bromide staining based electrophoresis
# Bifunctional 3'-5' exonuclease/ATP-dependent helicase WRN, sequence (Q14191 whole entry): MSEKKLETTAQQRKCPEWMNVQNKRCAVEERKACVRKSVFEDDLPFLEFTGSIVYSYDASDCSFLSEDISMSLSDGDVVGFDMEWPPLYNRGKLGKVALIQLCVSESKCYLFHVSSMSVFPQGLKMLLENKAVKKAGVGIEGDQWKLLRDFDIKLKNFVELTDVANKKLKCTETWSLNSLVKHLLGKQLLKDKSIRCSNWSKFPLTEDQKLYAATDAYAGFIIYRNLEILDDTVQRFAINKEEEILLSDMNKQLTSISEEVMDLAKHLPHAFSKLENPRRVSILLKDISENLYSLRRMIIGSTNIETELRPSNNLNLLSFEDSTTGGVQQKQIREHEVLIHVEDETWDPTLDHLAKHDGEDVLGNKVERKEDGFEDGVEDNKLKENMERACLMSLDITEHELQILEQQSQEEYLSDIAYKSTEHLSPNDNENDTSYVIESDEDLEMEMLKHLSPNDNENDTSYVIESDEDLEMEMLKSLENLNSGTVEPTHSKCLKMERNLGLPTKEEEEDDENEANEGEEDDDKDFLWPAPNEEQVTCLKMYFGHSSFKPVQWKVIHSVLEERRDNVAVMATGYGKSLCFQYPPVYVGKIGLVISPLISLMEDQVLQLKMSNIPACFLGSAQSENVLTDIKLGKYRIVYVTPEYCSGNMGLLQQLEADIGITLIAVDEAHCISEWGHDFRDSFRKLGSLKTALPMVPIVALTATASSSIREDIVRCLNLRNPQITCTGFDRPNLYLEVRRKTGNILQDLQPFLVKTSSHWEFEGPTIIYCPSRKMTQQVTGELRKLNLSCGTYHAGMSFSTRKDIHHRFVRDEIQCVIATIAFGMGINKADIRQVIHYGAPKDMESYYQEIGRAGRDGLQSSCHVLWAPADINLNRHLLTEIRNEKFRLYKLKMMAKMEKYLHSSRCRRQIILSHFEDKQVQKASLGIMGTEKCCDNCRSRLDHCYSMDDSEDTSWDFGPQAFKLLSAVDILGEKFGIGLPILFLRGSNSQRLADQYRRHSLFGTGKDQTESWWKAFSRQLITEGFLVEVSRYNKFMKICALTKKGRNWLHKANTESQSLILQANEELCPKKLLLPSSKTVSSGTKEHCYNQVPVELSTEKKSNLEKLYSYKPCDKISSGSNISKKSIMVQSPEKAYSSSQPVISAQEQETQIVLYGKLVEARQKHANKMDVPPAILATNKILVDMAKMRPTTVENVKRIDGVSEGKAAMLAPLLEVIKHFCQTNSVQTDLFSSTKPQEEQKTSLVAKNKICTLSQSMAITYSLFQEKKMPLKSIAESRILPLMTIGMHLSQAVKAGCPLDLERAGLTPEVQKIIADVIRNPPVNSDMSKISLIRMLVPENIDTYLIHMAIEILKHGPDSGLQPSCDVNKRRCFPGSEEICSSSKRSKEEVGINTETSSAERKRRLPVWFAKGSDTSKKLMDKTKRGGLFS
SMILES,pIC50 [1],pIC50 [2]
CCC(=O)OCN1C(=O)C=CC1=O,5.52,
CNCCc1cc2c(c3c1ccc1cc4c(cc13)OCO4)OCO2,,4.77
